Laboratory results taken from patent US11491165B2 (Kinoxis Therapeutics Pty Ltd, priority 2016, dated 2022).

Tests used:
[1] = target: T1, oxytocin receptor (OXTR), hOTR (Homo sapiens, UniProt P30559); assay: Competition radioligand binding, [3H]-oxytocin, OTR-expressing HEK293 membranes; conditions: [3H]-oxytocin 10 nM, 90 min 4 °C
T1 construct: expressed in transfected cells
T1 sequence (P30559 1-389): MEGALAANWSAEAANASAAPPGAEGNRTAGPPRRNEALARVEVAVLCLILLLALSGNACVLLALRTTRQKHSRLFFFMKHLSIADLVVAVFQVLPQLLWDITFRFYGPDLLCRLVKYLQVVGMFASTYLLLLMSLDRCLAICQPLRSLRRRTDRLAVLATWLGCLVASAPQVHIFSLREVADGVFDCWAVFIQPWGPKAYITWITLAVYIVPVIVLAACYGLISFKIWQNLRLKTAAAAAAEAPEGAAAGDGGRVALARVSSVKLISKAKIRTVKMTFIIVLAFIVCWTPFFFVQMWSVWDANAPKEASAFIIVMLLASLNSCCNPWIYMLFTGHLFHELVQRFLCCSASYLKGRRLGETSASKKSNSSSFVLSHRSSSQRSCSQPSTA

[2] = target: T2, vasopressin 1a receptor (V1aR) (Homo sapiens, UniProt P37288); assay: Competition radioligand binding, [3H]-vasopressin, V1aR-expressing HEK293 membranes; conditions: [3H]-vasopressin 2 nM, 90 min 4 °C
T2 construct: expressed in transfected cells

[3] = target: T1, oxytocin receptor (OXTR), hOTR; assay: IP1 accumulation assay, OTR-expressing HEK-293 cells (agonist and antagonist assessment); format: cell-based; conditions: for Emax: HEK293, read-out: OXTR Emax (% OXT); for EC50 (OXTR agonist potency, mean ± s.d.) / EC50: agonist assessment; for EC50 (OXTR agonist potency, mean ± s.d.) / IC50: IP1; for EC50: IP1, 1 h; for OV function: ratio of OXTR functional potency to V1aR functional potency, 'OT only' = function at OXTR only; for IC50: antagonist assessment vs OT 30 nM (~EC70)
In short: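 Flp-In T-REx HEK-293 cells stably expressing untagged hOTR were induced with tetracycline for 48 h, then exposed 1 h to compound (1 nM-100 μM) alone (agonist mode) or with 30 nM OT (~EC70; antagonist mode). IP1 was measured by HTRF, expressed as % of OT-plus-vehicle and fitted to a 4-parameter logistic curve; n≥3 experiments in duplicate.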

[4] = target: T2, vasopressin 1a receptor (V1aR); assay: IP1 accumulation assay, V1aR-expressing HEK-293 cells (agonist and antagonist assessment); format: cell-based; conditions: for EC50: agonist assessment, IP1, 1 h; for IC50: antagonist assessment vs AVP 25 nM (~EC70), IP1
BALB/c mice = assay: Murine social interaction test; format: in vivo, Mus musculus; conditions: male BALB/c mice, i.p., 10 min test 30 min after injection
Procedure: Example Testing Effect of WJ0679 on Murine Social Interaction (N=46)
Age: 6-7 weeks at testing
Vehicle: 88% isotonic saline, 10% DMSO, 2% tween 80
Route of administration: intraperitoneal (i.p.) injection
Mice were placed in the arena (40×40×40 cm) in weight and treatment matched pairs of unfamiliar mice for a 10 min test session, commencing 30 min after receiving their i.p. injection. The variables of interest were the time the mice spent in close physical contact with each other and the time each mouse spent engaged in active social investigation (sniffing the other mouse).

T2 sequence (P37288 whole entry): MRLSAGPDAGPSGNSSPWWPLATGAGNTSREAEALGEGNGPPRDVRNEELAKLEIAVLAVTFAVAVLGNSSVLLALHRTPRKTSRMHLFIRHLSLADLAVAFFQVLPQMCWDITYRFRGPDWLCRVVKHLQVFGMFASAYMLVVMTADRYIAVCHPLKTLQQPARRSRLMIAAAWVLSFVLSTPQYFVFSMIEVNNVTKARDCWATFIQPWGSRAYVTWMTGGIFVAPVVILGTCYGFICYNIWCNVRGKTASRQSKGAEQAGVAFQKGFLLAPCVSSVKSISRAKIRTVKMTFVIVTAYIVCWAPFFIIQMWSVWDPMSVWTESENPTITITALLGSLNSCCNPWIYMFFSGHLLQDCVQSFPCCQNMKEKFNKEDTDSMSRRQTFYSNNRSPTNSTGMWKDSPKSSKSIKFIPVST

Ki [1] [nM]	Ki [2] [nM]	Emax [3] [%]	EC50 (OXTR agonist potency, mean ± s.d.) [3] [nM]	EC50 [3] [nM]	OV function [3]	EC50 [4] [µM]	IC50 [4] [nM]	melting point	IC50 [3] [µM]	Structure (SMILES)	time spent in close physical contact (huddling time) (BALB/c mice; all doses (1, 5, 20 mg/kg), most pronounced at 1 and 5 mg/kg, FIG. 1)	active social investigation time (BALB/c mice; doses of 1 and 20 mg/kg, FIG. 2)
422 ± 129	105 ± 10.5	12.6	316 ± 108	406 ± 74	0.18	> 10	2200 ± 511	286 to 288 °C (dec.)	–	Cn1ncc2c1Nc1ccccc1N(C(=O)c1cccc(F)c1)C2 [WJ0679, (3-Fluorophenyl)(1-methyl-4,10-dihydrobenzo[b]pyrazolo[3,4-e][1,4]diazepin-5 (1H)-yl)methanone]	significantly increased	significantly increased
> 10000	1090 ± 58.3	25.3	632.5 ± 148	2400 ± 652	–	> 10	> 10000	266 to 268 °C (dec.)	–	Cn1ncc2c1Nc1ccccc1N(C(=O)C13CC4CC(CC(F)(C4)C1)C3)C2 [WJ0807mF, ((1r,3s,5R,7S)-3-Fluoroadamantan-1-yl)(1-methyl-4,10-dihydrobenzo[b]pyrazolo[3,4-e][1,4]diazepin-5 (1H)-yl)methanone]	–	–
519 ± 110	174 ± 57.4	10.2	255 ± 59.7	152 ± 47.3	0.09	> 10	1670 ± 299	243 to 246 °C	–	Cn1ncc2c1Nc1ccccc1N(C(=O)c1ccc(Cl)cc1)C2 [WJ0755, (4-Chlorophenyl)(1-methyl-4,10-dihydrobenzo[b]pyrazolo[3,4-e][1,4]diazepin-5 (1H)-yl)methanone]	–	–
> 10000	> 10000	–	–	> 10000	–	> 10	> 10000	236 to 238 °C	> 10	Cn1ncc2c1Nc1ccccc1N(Cc1cc(O)cc(O)c1)C2 [WJ0627, 5-((1-Methyl-4,10-dihydrobenzo[b]pyrazolo[3,4-e][1,4]diazepin-5(1H)-yl)methyl)benzene-1,3-diol]	–	–
117 ± 12.4	14 ± 2	5.87	147.0 ± 64.3	109 ± 17.7	0.37	> 10	346 ± 90.9	254 to 256 °C (dec.)	–	Cc1ccc(C(=O)N2Cc3cnn(C)c3Nc3ccccc32)cc1C [WJ5103, (3,4-Dimethylphenyl)(1-methyl-4,10-dihydrobenzo[b]pyrazolo[3,4-e][1,4]diazepin-5 (1H)-yl)methanone]	–	–
> 10000	> 10000	–	–	> 10000	–	> 10	> 10000	206 to 208 °C	> 10	Cn1ncc2c1Nc1ccccc1N(S(=O)(=O)c1ccc(Cl)cc1)C2 [WJ0633, 5-((4-Chlorophenyl)sulfonyl)-1-methyl-1,4,5,10-tetrahydrobenzo[b]pyrazolo[3,4-e][1,4]diazepine]	–	–
842 ± 288	108 ± 23.5	4.99	124.9 ± 16.8	338 ± 76.5	0.45	> 10	746 ± 158	267 to 269 °C (dec.)	–	COc1cccc(C(=O)N2Cc3cnn(C)c3Nc3ccccc32)c1 [WJ0657, (3-Methoxyphenyl)(1-methyl-4,10-dihydrobenzo[b]pyrazolo[3,4-e][1,4]diazepin-5 (1H)-yl)methanone]	–	–
